Assay: xn = mol fraction of the nth substance listed

OCCN1CCOCC1 + O
101 kPa
Conditions | viscosity [mPa·s]
303.15 K, x1 = 0.8238 | 30.25
313.15 K, x1 = 0.1126 | 13.55

CN(C)c1ccccc1 + O=S1(=O)CCCC1
viscosity [mPa·s], 101 kPa
Conditions | x1 = 0.1056 | x1 = 0.2173 | x1 = 0.2989 | x1 = 0.4055 | x1 = 0.5001 | x1 = 0.6087 | x1 = 0.6965 | x1 = 0.798 | x1 = 0.9131
303.15 K | 7.8 | 5.97 | 4.93 | 3.86 | 3.12 | 2.47 | 2.06 | 1.68 | 1.36
308.15 K | 6.92 | 5.33 | 4.44 | 3.51 | 2.85 | 2.26 | 1.89 | 1.55 | 1.26
313.15 K | 6.18 | 4.79 | 4.01 | 3.19 | 2.61 | 2.08 | 1.74 | 1.43 | 1.17

CC(=O)CC(C)=O + CCCCCO
298.15 K, 101 kPa
Conditions | viscosity [mPa·s]
x1 = 0.1 | 2.509
x1 = 0.2 | 1.944
x1 = 0.3 | 1.55
x1 = 0.4 | 1.263
x1 = 0.5 | 1.05
x1 = 0.6 | 0.897
x1 = 0.7 | 0.796
x1 = 0.8 | 0.743
x1 = 0.9 | 0.722

CN(C)c1ccccc1 + CCCCO
303.15 K, 101 kPa
Conditions | viscosity [mPa·s]
x1 = 0.0489 | 2.2
x1 = 0.0742 | 2.187
x1 = 0.1249 | 2.156
x1 = 0.1802 | 2.12
x1 = 0.2362 | 2.079
x1 = 0.265 | 2.056
x1 = 0.2944 | 2.032
x1 = 0.3549 | 1.978
x1 = 0.419 | 1.915
x1 = 0.4854 | 1.844
x1 = 0.5905 | 1.722
x1 = 0.7423 | 1.526
x1 = 0.9099 | 1.295

CCCCN(CCCC)CCCC + CCCCCC
viscosity [mPa·s], 101 kPa
Conditions | x1 = 0.0982 | x1 = 0.1945 | x1 = 0.3994 | x1 = 0.495 | x1 = 0.5384 | x1 = 0.7924 | x1 = 0.903
303.15 K | 0.3305 | 0.3909 | 0.5434 | 0.623 | 0.6623 | 0.923 | 1.05
313.15 K | 0.289 | 0.3449 | 0.4813 | 0.5536 | 0.588 | 0.8088 | 0.91

Cc1ccc(C(C)C)cc1 + COC(C)(C)C
298.15 K, 101.33 kPa
Conditions | viscosity [mPa·s]
x2 = 0.0616 | 0.7751
x2 = 0.1556 | 0.7225
x2 = 0.3301 | 0.6338
x2 = 0.4987 | 0.5524
x2 = 0.5665 | 0.5253
x2 = 0.6911 | 0.4605
x2 = 0.7665 | 0.4272
x2 = 0.8304 | 0.3998
x2 = 0.8734 | 0.3814
x2 = 0.9298 | 0.3583
x2 = 0.9644 | 0.3467

C=CC#N + CC(=O)c1ccccc1
308.15 K, 101 kPa
Conditions | viscosity [mPa·s]
x2 = 0.0582 | 0.3608
x2 = 0.1109 | 0.3946
x2 = 0.1957 | 0.4532
x2 = 0.2736 | 0.5132
x2 = 0.3939 | 0.62
x2 = 0.4591 | 0.676
x2 = 0.5681 | 0.7844
x2 = 0.6945 | 0.9222
x2 = 0.7954 | 1.052

CN(C)c1ccccc1 + CC(C)=O
viscosity [mPa·s], 101 kPa
Conditions | 303.15 K | 308.15 K
x1 = 0.0782 | 0.409 | 0.374
x1 = 0.1356 | 0.494 | 0.448
x1 = 0.1965 | 0.584 | 0.535
x1 = 0.2551 | 0.668 | 0.614
x1 = 0.3205 | 0.757 | 0.698
x1 = 0.3921 | 0.844 | 0.781
x1 = 0.4724 | 0.925 | 0.857
x1 = 0.5558 | 0.992 | 0.921
x1 = 0.6214 | 1.033 | 0.958
x1 = 0.7086 | 1.072 | 0.995
x1 = 0.7784 | 1.095 | 1.018
x1 = 0.8565 | 1.118 | 1.046
x1 = 0.9221 | 1.138 | 1.069

O=BOB([O-])OB([O-])OB=O.[Na+].[Na+] + O
viscosity [mPa·s], 101 kPa
Conditions | x1 = 0.0009 | x1 = 0.0018 | x1 = 0.0022 | x1 = 0.0027
298.15 K | 0.9284 | 0.9681 | 0.9845 | 1.008
308.15 K | 0.7526 | 0.7823 | 0.7945 | 0.8122
318.15 K | 0.6216 | 0.6508 | 0.6626 | 0.6806

CC(=O)[O-].CCCC[NH3+] + CO
101.3 kPa
Conditions | viscosity [mPa·s]
293.15 K, x1 = 0.7993 | 256.5
298.15 K, x1 = 0.8988 | 312.5

C=CC#N + CCCOC(C)=O
viscosity [mPa·s], 101.33 kPa
Conditions | x1 = 0.1052 | x1 = 0.1835 | x1 = 0.2994 | x1 = 0.4057 | x1 = 0.4982 | x1 = 0.6097 | x1 = 0.7023 | x1 = 0.8019 | x1 = 0.901
298.15 K | 0.54 | 0.524 | 0.5 | 0.479 | 0.459 | 0.435 | 0.411 | 0.387 | 0.362
303.15 K | 0.504 | 0.489 | 0.47 | 0.452 | 0.434 | 0.411 | 0.391 | 0.368 | 0.345
308.15 K | 0.472 | 0.46 | 0.442 | 0.428 | 0.411 | 0.392 | 0.372 | 0.352 | 0.331

C=CC#N + CCCCCO
viscosity [mPa·s], 101.33 kPa
Conditions | x1 = 0.1032 | x1 = 0.2077 | x1 = 0.3006 | x1 = 0.4053 | x1 = 0.5035 | x1 = 0.6091 | x1 = 0.7025 | x1 = 0.8042 | x1 = 0.9004
298.15 K | 2.405 | 1.777 | 1.384 | 1.064 | 0.847 | 0.668 | 0.558 | 0.464 | 0.401
303.15 K | 2.107 | 1.58 | 1.24 | 0.965 | 0.774 | 0.619 | 0.52 | 0.436 | 0.382
308.15 K | 1.86 | 1.413 | 1.122 | 0.879 | 0.715 | 0.577 | 0.488 | 0.416 | 0.364

CN(C)c1ccccc1 + CC(=O)O
viscosity [mPa·s], 101 kPa
Conditions | x2 = 0.1008 | x2 = 0.201 | x2 = 0.3424 | x2 = 0.3973 | x2 = 0.4957 | x2 = 0.5978 | x2 = 0.7002 | x2 = 0.7928 | x2 = 0.8476 | x2 = 0.9025
298.15 K | 1.363 | 1.448 | 1.644 | 1.757 | 2.04 | 2.547 | 3.352 | 4.244 | 4.514 | 3.819
318.15 K | 0.9835 | 1.02 | 1.106 | 1.16 | 1.281 | 1.488 | 1.831 | 2.192 | 2.327 | 2.085

Reference: the CheMixHub viscosity set
